The results in this text go back to BindingDB's records for doi:10.1021/acs.jmedchem.0c00337 (Peking Union Medical College, 2020).

In general, IC50 refers to the concentration needed to halve the response being measured. As usually defined, the EC50 is the concentration at which the effect is half-maximal.

The nature of one series: Reversal of Pgp-mediated DOX resistance in human SW620/AD300 cells assessed as potentiation of DOX-induced cytotoxicity by measuring DOX IC50 at 1 uM incubated for 48 hrs by SRB assay (Rvb = 33.39 +/- 7.08 uM). (The SRB assay estimates cell density from bound dye.)
As to `COc1cc2c(cc1OC)CN(CCc1ccc(NC(=O)/C=C/c3ccc(Oc4ccc(-c5ccccn5)cc4Br)nc3)cc1)CC2`, the concentration for half-maximal inhibition (IC50) came to 700 nM.

Consider `COc1cc2c(cc1OC)CN(CCc1ccc(NC(=O)/C=C/c3ccc(Oc4ccc(-c5cccnc5)cc4)nc3)cc1)CC2`, for which the IC50 came to 390 nM.

Turning to `COc1cc2c(cc1OC)CN(CCc1ccc(NC(=O)/C=C/c3ccc(Oc4c(I)cc(-c5ccccn5)cc4I)nc3)cc1)CC2`, the IC50 was found to be 1180 nM.

As for `COc1cc2c(cc1OC)CN(CCc1ccc(NC(=O)/C=C/c3ccc(Oc4ccc(-c5ccccn5)c(C#N)c4)nc3)cc1)CC2`, the IC50 is 610 nM.

Turning to `COc1cc2c(cc1OC)CN(CCc1ccc(NC(=O)/C=C/c3cccc(Oc4ccc(-c5ccccn5)cc4)n3)cc1)CC2`, the IC50 was determined as 990 nM.

Regarding `COc1cc2c(cc1OC)CN(CCc1ccc(NC(=O)/C=C/c3ccc(Oc4ccc(-c5ccccn5)cc4C)nc3)cc1)CC2`, the IC50 stood at 740 nM.

With `COc1cc2c(cc1OC)CN(CCc1ccc(NC(=O)C(c3c(-c4ccccc4)n(C)c4ccccc34)N3CCOCC3)cc1)CC2` (configuration not stated), the IC50 worked out at 550 nM.

For the compound `COc1cc2c(cc1OC)CN(CCc1ccc(NC(=O)C(O)c3c(-c4ccccc4)n(C)c4ccccc34)cc1)CC2` (configuration not stated), the IC50 was found to be 1100 nM.

On to `COc1ccc2c(C)c(CC(=O)Nc3ccc(CCN4CCc5cc(OC)c(OC)cc5C4)cc3)c(=O)oc2c1`, for which the half-maximal inhibitory concentration (IC50) is 1970 nM.

Regarding `COc1cc2c(cc1OC)CN(CCc1ccc(NC(=O)/C=C/c3ccc(Oc4cccc(-c5ccccn5)c4)nc3)cc1)CC2`, the IC50 was 750 nM.

`COc1cc2c(cc1OC)CN(CCc1ccc(NC(=O)/C=C/c3c(-c4ccccc4)n(C)c4ncccc34)cc1)CC2`: the IC50 was 820 nM.

Regarding `COc1cc2c(cc1OC)CN(CCc1ccc(NC(=O)/C=C/c3ccc(Oc4cc(O)c(-c5ccccn5)c(O)c4)nc3)cc1)CC2`, the IC50 came to 780 nM.

Turning to `COc1cc2c(cc1OC)CN(CCc1ccc(NC(=O)/C=C/c3ccc(Oc4ccc(-c5ccccn5)c(Cl)c4)nc3)cc1)CC2`, the IC50 stood at 560 nM.

Take `COc1cc2c(cc1OC)CN(CCc1ccc(NC(=O)/C=C/c3cc(-c4ccccn4)cc(C)c3Oc3ccccn3)cc1)CC2`: the IC50 amounted to 550 nM.

For `COc1cc2c(cc1OC)CN(CCc1ccc(NC(=O)C3CC3c3ccc(Oc4ccc(-c5ccccn5)cc4)nc3)cc1)CC2` (configuration not stated), the IC50 was 760 nM.

In the case of `COc1cc2c(cc1OC)CN(CCc1ccc(NC(=O)/C=C/c3ccc(Oc4ccc(-c5ccccn5)c(O)c4)nc3)cc1)CC2`, the IC50 came to 820 nM.

As for `COc1cc2c(cc1OC)CN(CCc1ccc(NC(=O)/C=C/c3ccc(Oc4ccc(-c5ccccn5)c(C)c4)nc3)cc1)CC2`, the half-inhibitory concentration (IC50) is 490 nM.

`COc1cc2c(cc1OC)CN(CCc1ccc(NC(=O)/C=C/c3ccc(Oc4ccc(-c5ccccn5)cc4I)nc3)cc1)CC2`: the concentration for half-maximal inhibition (IC50) is 760 nM.

Consider `COc1cc2c(cc1OC)CN(CCc1ccc(NC(=O)/C=C/c3c(-c4ccccc4)oc4ccccc4c3=O)cc1)CC2`, for which the IC50 is 1360 nM.

The next series can be described thus: Reversal of Pgp-mediated DOX resistance in human SW620/AD300 cells assessed as concentration required to show half of DOX IC50 incubated for 48 hrs by SRB assay.
`COc1cc2c(cc1OC)CN(CCc1ccc(NC(=O)/C=C/c3ccc(Oc4ccc(-c5cccnc5)cc4)nc3)cc1)CC2`: the concentration for a half-maximal effect (EC50) was determined as 103 nM.

With `COc1cc2c(cc1OC)CN(CCc1ccc(NC(=O)/C=C/c3ccc(Oc4ccc(-c5ccccn5)c(C#N)c4)nc3)cc1)CC2`, the EC50 amounted to 51 nM.

Consider `COc1cc2c(cc1OC)CN(CCc1ccc(NC(=O)/C=C/c3ccc(Oc4ccc(-c5ccccn5)c(Cl)c4)nc3)cc1)CC2`, for which the EC50 worked out at 37 nM.
